Assay results reported in patent US20090155903A1, “PHARMACEUTICAL COMPOSITION AND METHOD” (Myriad Genetics, Incorporated, priority 2004, published 2009).

Assays:
COX2 = target: T1, COX2 (Homo sapiens, UniProt P35354); experiment: COX inhibitor screening kit (Cayman Chemical), COX2; format: biochemical; conditions: 100 μM compound
T1 construct: purchased Cayman Chemical, Ann Arbor, Mich; 560131
T1 sequence (P35354 18-604): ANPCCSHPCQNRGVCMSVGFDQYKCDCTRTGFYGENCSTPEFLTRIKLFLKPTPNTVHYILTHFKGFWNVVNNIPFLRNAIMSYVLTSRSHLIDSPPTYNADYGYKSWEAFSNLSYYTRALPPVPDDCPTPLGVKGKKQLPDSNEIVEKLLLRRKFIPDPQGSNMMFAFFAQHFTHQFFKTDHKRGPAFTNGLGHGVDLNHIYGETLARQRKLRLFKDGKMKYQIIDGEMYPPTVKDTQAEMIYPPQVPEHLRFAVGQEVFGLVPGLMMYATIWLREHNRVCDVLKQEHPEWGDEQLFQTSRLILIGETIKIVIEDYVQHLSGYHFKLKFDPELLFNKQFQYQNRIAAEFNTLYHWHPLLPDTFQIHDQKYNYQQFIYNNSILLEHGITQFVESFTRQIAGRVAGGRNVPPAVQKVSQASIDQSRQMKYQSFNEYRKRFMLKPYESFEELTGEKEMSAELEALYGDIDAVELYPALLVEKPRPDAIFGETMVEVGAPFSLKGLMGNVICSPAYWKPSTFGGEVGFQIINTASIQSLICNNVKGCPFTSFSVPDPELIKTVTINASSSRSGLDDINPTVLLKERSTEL
Procedure: (§1) The invention is based on the fact that the inventors have discovered that compounds of the formulae above lower Aβ42 Levels in in vitro APP processing assays. Furthermore, the compounds, in general, have negligible levels of COX inhibition and therefore are thought to essentially be devoid of the deleterious side-effects associated with COX inhibition. […] Preferred compounds of the formulae for use in the invention are those that have little or negligible COX1 and/or COX2 inhibition at 1 μM, more preferred are those that little or negligible COX1 and/or COX2 inhibition at 10 μM, and more preferred are those that little or negligible COX1 and/or COX2 inhibition at 100 μM compound. COX1 and COX2 inhibition can be determined with a COX inhibitor screening kit from e.g., Cayman Chemical, Ann Arbor, Mich. (Cat. #560131).
(§2) The invention is related to the inventors' discovery that compounds of Formula I-Va lower Aβ42 levels in APP processing assays. Furthermore, compounds of Formula I-Va, in general, have negligible levels of COX inhibition and therefore are thought to essentially be devoid of the deleterious side-effects associated with COX inhibition. […] Preferred compounds of Formula I-Va for use in the invention are those that have little or negligible COX1 and/or COX2 inhibition at 1 μM, more preferred are those that have little or negligible COX1 and/or COX2 inhibition at 10 μM, and more preferred are those that have little or negligible COX1 and/or COX2 inhibition at 100 μM compound. COX1 and COX2 inhibition can be determined with a COX inhibitor screening kit from e.g., Cayman Chemical, Ann Arbor, Mich. (Cat. #560131). […] Representative compounds found to lower Aβ42 levels using the previously described assay by at least 50% of DMSO control at concentrations ranging from 30-80 μM include compounds 1, 11, 21, 22, 24, 25, 26, 38, 43, 64, 67, 98, 100, and 102. Particularly preferred compounds of Formula I-Va for use in the methods and embodiments of the invention include those in Tables 2-7 below.

COX1 = target: T2, COX1 (Ovis aries, UniProt P05979); experiment: COX inhibitor screening kit (Cayman Chemical), COX1; format: biochemical; conditions: 100 μM compound
T2 construct: purchased Cayman Chemical, Ann Arbor, Mich; 560131
T2 sequence (P05979 25-600): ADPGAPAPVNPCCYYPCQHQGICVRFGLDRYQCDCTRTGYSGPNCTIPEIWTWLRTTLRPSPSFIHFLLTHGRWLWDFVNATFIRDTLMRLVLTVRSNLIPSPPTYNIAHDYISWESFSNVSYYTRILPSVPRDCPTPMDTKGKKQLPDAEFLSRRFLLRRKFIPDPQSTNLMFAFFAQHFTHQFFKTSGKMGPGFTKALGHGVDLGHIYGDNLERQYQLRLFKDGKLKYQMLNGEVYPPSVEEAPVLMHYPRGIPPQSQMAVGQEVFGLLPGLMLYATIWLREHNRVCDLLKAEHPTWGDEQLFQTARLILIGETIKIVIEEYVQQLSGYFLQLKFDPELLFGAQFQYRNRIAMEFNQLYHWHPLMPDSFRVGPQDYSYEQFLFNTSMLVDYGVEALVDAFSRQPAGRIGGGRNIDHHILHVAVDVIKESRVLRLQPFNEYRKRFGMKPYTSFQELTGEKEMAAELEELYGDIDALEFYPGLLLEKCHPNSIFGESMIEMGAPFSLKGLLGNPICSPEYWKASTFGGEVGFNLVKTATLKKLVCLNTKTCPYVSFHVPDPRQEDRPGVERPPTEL
Procedure: as §1, §2

[1] = clinical trials; rofecoxib at 25 mg daily; cited from earlier work
[2] = patients with mild cognitive impairment; 4.5% for placebo; cited from earlier work

SMILES | inhibition of COX2 (COX2) | inhibition of COX1 (COX1) | efficacy for treating AD [1] | patients who developed AD [2]
COc1ccc(-c2cccc(CC(=O)O)c2)cc1 [Compound 72, (4′-Methoxy-biphenyl-3-yl)-acetic acid] | not significantly inhibit | not significantly inhibit |  | 
O=C(O)c1cc2cc(OCc3ccccc3)ccc2n1Cc1ccc(C(F)(F)F)cc1 [Compound 97, 5-benzyloxy-1-(4-trifluoromethylbenzyl)-1H-indole-2-carboxylic acid] | not significantly inhibit | not significantly inhibit |  | 
Cc1c(CC(=O)O)c2ccccc2n1C(=O)c1ccc(OC(F)(F)F)cc1 [Compound 10, 1-(4-trifluoromethoxybenzoyl)-2-methylindole-3-acetic acid] | not significantly inhibit | not significantly inhibit |  | 
COc1ccc2cc([C@H](C)C(=O)O)ccc2c1 [Naproxen] |  |  | failed to show efficacy | 
Cc1c(CC(=O)O)c2ccccc2n1Cc1ccc(Br)cc1 [Compound 19, 1-(4-bromobenzyl)-2-methylindole-3-acetic acid] | not significantly inhibit | not significantly inhibit |  | 
CS(=O)(=O)c1ccc(C2=C(c3ccccc3)C(=O)OC2)cc1 [rofecoxib] |  |  | failed to show efficacy | 6.4%
O=C(O)c1cc([N+](=O)[O-])ccc1NCc1cccc(Cl)c1 [Compound 43, 2-(3-chlorobenzylamino)-5-nitrobenzoic acid] | not significantly inhibit | not significantly inhibit |  | 
O=C(O)c1cc([N+](=O)[O-])ccc1NCc1ccc(Cl)c(Cl)c1 [Compound 40, 2-(3,4-dichlorobenzylamino)-5-nitrobenzoic acid] | not significantly inhibit | not significantly inhibit |  | 
